Test results published in US8263606B2 (Xenon Pharmaceuticals Inc., priority 2008, dated 2012).

What was measured:
sodium channel = assay: Guanidine influx assay (14C-guanidine radiotracer flux, in vitro); assay type: cell-based, human or rat; conditions: guanidine influx assay using a known cell line that expresses a sodium channel
Outline: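 Aconitine holds channels open while 14C-guanidine enters human or rat sodium-channel-expressing cells in choline-substituted low-sodium saline, with test agent present at ambient temperature. Retained tracer is scintillation-counted and IC50 fitted by a four-parameter logistic model.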

CYP3A4 = CYP3A4 (Homo sapiens, UniProt P08684); assay: Cytochrome P450 (CYP450) Inhibition Assay, CYP3A4 (Vivid fluorescence, BOMCC substrate); conditions: human, P450 Baculosomes (recombinant CYP3A4), probe BOMCC (Vivid substrate)
CYP3A4, sequence (P08684 whole entry): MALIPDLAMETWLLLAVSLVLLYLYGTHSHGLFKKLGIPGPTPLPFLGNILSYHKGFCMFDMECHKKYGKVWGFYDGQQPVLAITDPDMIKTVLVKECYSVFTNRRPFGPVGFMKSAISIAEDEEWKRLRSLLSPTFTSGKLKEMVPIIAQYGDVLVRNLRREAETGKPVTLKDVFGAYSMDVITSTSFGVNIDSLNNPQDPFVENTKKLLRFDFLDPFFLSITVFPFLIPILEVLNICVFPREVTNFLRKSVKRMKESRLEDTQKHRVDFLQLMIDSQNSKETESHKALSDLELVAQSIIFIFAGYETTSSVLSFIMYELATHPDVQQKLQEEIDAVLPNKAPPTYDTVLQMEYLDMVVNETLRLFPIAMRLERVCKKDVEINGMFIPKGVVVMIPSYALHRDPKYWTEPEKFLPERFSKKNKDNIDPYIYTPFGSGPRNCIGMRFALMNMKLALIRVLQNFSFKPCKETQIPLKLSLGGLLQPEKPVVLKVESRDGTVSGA

| SMILES | melting point | IC50 (sodium channel) | inhibition at 10 µM (CYP3A4) | IC50 (sodium channel; activity level class) |
| --- | --- | --- | --- | --- |
| C[C@@H](CN1C(=O)C2(COc3cc4c(cc32)CCO4)c2ccccc21)OCc1ccc(F)cc1 (stereo partly drawn) [Example 14.2, 1′-{(2S)-2-[(4-fluorobenzyl)oxy]propyl}-5,6-dihydrospiro[benzo[1,2-b:5,4-b′]difuran-3,3′-indol]-2′(1′H)-one] | 55 to 60 °C | 100 to 1000 nM | > 50% | – |
| O=C1N(C[C@H]2CCCO2)c2ccccc2C12COc1cc3c(cc12)CCCC3 (stereo partly drawn) [Example 4.129, 1-[(2R)-tetrahydrofuran-2-ylmethyl]-5′,6′,7′,8′-tetrahydrospiro[indole-3,3′-naphtho[2,3-b]furan]-2(1′H)-one] | 139 to 141 °C | – | < 50% | 1000 to 10000 nM |
| O=C1N(Cc2ccc(OCc3ccccc3)cc2)c2ccccc2C12COc1cc3c(cc12)OCCO3 (stereo not drawn) [Example 9.37, 1′-[4-(benzyloxy)benzyl]-2,3-dihydrospiro[furo[2,3-g][1,4]benzodioxine-8,3′-indol]-2′(1′H)-one] | 87 to 89 °C | – | < 50% | 100 to 1000 nM |
| CSc1ccc(CN2C(=O)C3(COc4cc5c(cc43)OCO5)c3ccccc32)cc1 (stereo not drawn) [Example 4.79, 1′-[4-(methylsulfanyl)benzyl]spiro[furo[2,3-f][1,3]benzodioxole-7,3′-indol]-2′(1′H)-one] | 128 to 130 °C | – | > 50% | 1 to 100 nM |
| Cc1noc2cc3c(cc12)C1(CO3)C(=O)N(Cc2ncccc2F)c2ccccc21 (stereo not drawn) [Example 9.57, 1′-[(3-fluoropyridin-2-yl)methyl]-3-methylspiro[furo[3,2-f][1,2]benzisoxazole-5,3′-indol]-2′(1′H)-one] | 167 to 169 °C | 100 to 1000 nM | < 50% | – |
| CCCCCCN(C)C(=O)c1cccc(CN2C(=O)C3(COc4cc5c(cc43)CCO5)c3ccccc32)c1 (stereo not drawn) [Example 12.2, N-hexyl-N-methyl-3-[(2′-oxo-5,6-dihydrospiro[benzo[1,2-b:5,4-b′]difuran-3,3′-indol]-1′(2′H)-yl)methyl]benzamide] | 73 to 74 °C | 100 to 1000 nM | > 50% | – |
| COc1ccc(CN2C(=O)C3(COc4cc(OC)c(C#N)cc43)c3ccccc32)cc1 (stereo not drawn) [Example 9.46, 6-methoxy-1′-(4-methoxybenzyl)-2′-oxo-1′,2′-dihydrospiro[1-benzofuran-3,3′-indole]-5-carbonitrile] | 207 to 208 °C | – | > 50% | 100 to 1000 nM |
| CN1C(=O)C2(COc3cc4c(cc32)OCCO4)c2ccccc21 (stereo not drawn) [Example 5.22, 1′-methyl-2,3-dihydrospiro[furo[2,3-g][1,4]benzodioxine-8,3′-indol]-2′(1′H)-one] | 152 to 154 °C | – | < 50% | 1 to 100 nM |
| N#Cc1cccc(CN2C(=O)C3(COc4cc5c(cc43)OCCO5)c3ccccc32)c1 (stereo not drawn) [Example 4.94, 3-[(2′-oxo-2,3-dihydrospiro[furo[2,3-g][1,4]benzodioxine-8,3′-indol]-1′(2′H)-yl)methyl]benzonitrile] | 173 to 178 °C | – | > 50% | 1 to 100 nM |
| COc1ccccc1NC(=O)c1ccccc1CN1C(=O)C2(COc3cc4c(cc32)CCO4)c2ccccc21 (stereo not drawn) [Example 12.11, N-(2-methoxyphenyl)-2-[(2′-oxo-5,6-dihydrospiro[benzo[1,2-b:5,4-b′]difuran-3,3′-indol]-1′(2′H)-yl)methyl]benzamide] | 172 to 174 °C | 1000 to 10000 nM | > 50% | – |
| O=C1c2ccccc2C(=O)N1CCCN1C(=O)C2(COc3cc4c(cc32)CCO4)c2ccccc21 (stereo not drawn) [Example 9.66, 2-[3-(2′-oxo-5,6-dihydrospiro[benzo[1,2-b:5,4-b′]difuran-3,3′-indol]-1′(2′H)-yl)propyl]-1H-isoindole-1,3(2H)-dione] | 214 to 217 °C | 1 to 100 nM | > 50% | – |
| O=C1N(Cc2ccccc2C(F)(F)F)c2ccccc2[C@@]12COc1cc3c(cc12)OCCO3 [Example 4.114, (8R)-1′-[2-(trifluoromethyl)benzyl]-2,3-dihydrospiro[furo[2,3-g][1,4]benzodioxine-8,3′-indol]-2′(1′H)-one] | 137 to 138 °C | – | < 50% | 100 to 1000 nM |
| O=C1N(Cc2ccc(N3CCOCC3)nc2)c2ccccc2C12COc1cc3c(cc12)OCCO3 (stereo not drawn) [Example 32, 1′-[(6-morpholin-4-ylpyridin-3-yl)methyl]-2,3-dihydrospiro[furo[2,3-g][1,4]benzodioxine-8,3′-indol]-2′(1′H)-one] | 117 to 119 °C | 1 to 100 nM | > 50% | – |
| O=C1N(Cc2ccnnc2)c2ccccc2C12COc1cc3c(cc12)CCO3 (stereo not drawn) [Example 10, 1-(pyridazin-4-ylmethyl)-5,6-dihydrospiro[benzo[1,2-b:5,4-b′]difuran-3,3′-indol]-2′(1′H)-one] | 187 to 189 °C | 100 to 1000 nM | > 50% | – |
| O=C1N(Cc2nsc(Cl)n2)c2cccc(Cl)c2C12COc1cc3c(cc12)OCO3 (stereo not drawn) [Example 6.1, 4′-chloro-1′-[(5-chloro-1,2,4-thiadiazol-3-yl)methyl]spiro[furo[2,3-f][1,3]benzodioxole-7,3′-indol]-2′(1′H)-one] | 174 to 176 °C | – | > 50% | 1 to 100 nM |
| O=C1N(Cc2ncccn2)c2ccccc2C12COc1cc3c(cc12)OCCO3 (stereo not drawn) [Example 5.32, 1′-(pyrimidin-2-ylmethyl)-2,3-dihydrospiro[furo[2,3-g][1,4]-benzodioxine-8,3′-indol]-2′(1′H)-one] | 278 to 279 °C | – | < 50% | 1 to 100 nM |
| Cn1cc(CN2C(=O)C3(COc4cc5c(cc43)OCCO5)c3ccccc32)ccc1=O (stereo not drawn) [Example 36, 1′-[(1-methyl-6-oxo-1,6-dihydropyridin-3-yl)methyl]-2,3-dihydrospiro[furo[2,3-g][1,4]benzodioxine-8,3′-indol]-2′(1′H)-one] | 205 to 207 °C | 100 to 1000 nM | < 50% | – |
| O=C1N(Cc2ccc(C(F)F)o2)c2ccccc2C12COc1cc3c(cc12)OCCO3 (stereo not drawn) [Example 11.110, 1-{[5-(difluoromethyl)furan-2-yl]methyl}-2,3-dihydrospiro[furo[2,3-g][1,4]benzodioxine-8,3′-indol]-2′(1′H)-one] | 173 to 175 °C | 1 to 100 nM | > 50% | – |
| O=C1N(Cc2ccc(Cl)s2)c2c(C(F)(F)F)cccc2C12COc1cc3c(cc12)OCO3 (stereo not drawn) [Example 4.75, 1-[(5-chloro-2-thienyl)methyl]-7′-(trifluoromethyl)spiro[furo[2,3-f][1,3]benzodioxole-7,3′-indol]-2′(1′H)-one] | 165 to 166 °C | – | > 50% | 100 to 1000 nM |
| CN(C)C(=O)c1cc(CN2C(=O)C3(COc4cc5c(cc43)OCO5)c3ccccc32)oc1C(F)(F)F (stereo not drawn) [Example 12.59, N,N-dimethyl-5-[(2′-oxospiro[furo[2,3-f][1,3]benzodioxole-7,3′-indol]-1′(2′H)-yl)methyl]-2-(trifluoromethyl)furan-3-carboxamide] | 96 to 98 °C | 100 to 1000 nM | > 50% | – |
| CCCCNC(=O)c1ccccc1CN1C(=O)C2(COc3cc4c(cc32)CCO4)c2ccccc21 (stereo not drawn) [Example 12.18, N-butyl-2-[(2′-oxo-5,6-dihydrospiro[benzo[1,2-b:5,4-b′]difuran-3,3′-indol]-1′(2′H)-yl)methyl]benzamide] | 176 to 178 °C | 1000 to 10000 nM | > 50% | – |
| CCOC(=O)CN1C(=O)C2(COc3cc4c(cc32)OCCO4)c2ccccc21 (stereo not drawn) [Example 9.44, ethyl (2′-oxo-2,3-dihydrospiro[furo[2,3-g][1,4]benzodioxine-8,3′-indol]-1′(2′H)-yl)acetate] | 58 to 59 °C | – | < 50% | 1 to 100 nM |
| O=C1N(Cc2cnc(N3CCOCC3)s2)c2ccccc2C12COc1cc3c(cc12)OCO3 (stereo not drawn) [Example 11.2, 1′-[(2-morpholin-4-yl-1,3-thiazol-5-yl)methyl]spiro[furo[2,3-f][1,3]benzodioxole-7,3′-indol]-2′(1′H)-one] | 97 to 99 °C | 100 to 1000 nM | > 50% | – |
| CC(C)c1ncc(CN2C(=O)C3(COc4cc5c(cc43)OCO5)c3cccc(C(F)(F)F)c32)s1 (stereo not drawn) [Example 4.76, 1′-[(2-isopropyl-1,3-thiazol-5-yl)methyl]-7′-(trifluoromethyl)spiro[furo[2,3-f][1,3]benzodioxole-7,3′-indol]-2′(1′H)-one] | 101 to 103 °C | – | > 50% | 100 to 1000 nM |
| CC(C)(C)OC(=O)N1C(=O)C2(COc3cc4c(cc32)OCCO4)c2ccccc21 (stereo not drawn) [Example 18.2, tert-butyl 2′-oxo-2,3-dihydrospiro[furo[2,3-g][1,4]benzodioxine-8,3′-indole]-1′(2′H)-carboxylate] | 171 to 172 °C | 100 to 1000 nM | < 50% | – |
| N#Cc1cccc(CN2C(=O)[C@@]3(COc4cc5c(cc43)OCCO5)c3ccccc32)c1 [Example 4.106, 3-{[(8S)-2′-oxo-2,3-dihydrospiro[furo[2,3-g][1,4]benzodioxine-8,3′-indol]-1′(2′H)-yl]methyl}benzonitrile] | 94 to 96 °C | – | < 50% | 1 to 100 nM |
| O=C1N(Cc2nsc(Cl)n2)c2ccccc2C12COc1cc3c(cc12)OCO3 (stereo not drawn) [Example 6, 1′-[(5-chloro-1,2,4-thiadiazol-3-yl)methyl]spiro[furo[2,3-f][1,3]benzodioxole-7,3′-indol]-2′(1′H)-one] | 114 to 116 °C | – | > 50% | 1 to 100 nM |
